Experimental findings from patent US20220251036A1, “DIFLUOROHALOALLYLAMINE SULFONE DERIVATIVE INHIBITORS OF LYSYL OXIDASES, METHODS OF PREPARATION, AND USES THEREOF” (PHARMAXIS LTD., priority 2019, published 2022) are described below.

One test concerns the target T1, Bovine LOX (Bos taurus, UniProt P33072).
T1 sequence (P33072 170-418): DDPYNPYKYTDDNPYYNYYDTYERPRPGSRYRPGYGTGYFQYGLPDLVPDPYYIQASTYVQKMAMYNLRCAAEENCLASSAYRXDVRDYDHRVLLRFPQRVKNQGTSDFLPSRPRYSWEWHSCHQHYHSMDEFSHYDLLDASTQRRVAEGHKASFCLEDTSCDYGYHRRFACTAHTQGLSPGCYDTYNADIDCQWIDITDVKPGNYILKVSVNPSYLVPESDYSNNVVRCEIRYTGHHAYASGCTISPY
Put plainly: LOX inhibition, Amplex Red oxidation assay. Format: biochemical. The note with it: for IC50: incubation with enzyme 30 min at 37° C, read-out: Bovine LOX Activity IC50. As for the experimental part: (§1) LOX and LOXL protein family members can be acquired as recombinant active proteins from commercial sources, or extracted from animal tissues like bovine aorta, tendons, pig skin; or prepared from cell cultures. […] The assay was developed using either 384 or 96 well format. Briefly, in a standard black, clear bottom 384 well plate assay 25 μL of a dilution of any of the isoenzymes and orthologues in 1.2 M urea, 50 mM sodium borate buffer (pH 8.2) were added into each well in the presence of 1 μM mofegiline and 0.5 mM pargyline (to inhibit SSAO and MAO-B and MAO-A, respectively; not necessary if the enzyme is from a recombinant or purified form). Test compounds were dissolved in DMSO and tested in a Concentration Response Curve (CRC) with 11 data points, typically in the micromolar or nanomolar range after incubation with the enzyme for 30 min at 37° C. 25 μL of a reaction mixture containing twice the KM concentration of putrescine (Sigma Aldrich, e.g. 20 mM for LOX and LOXL1 or 10 mM for LOXL2 and 4 mM for LOXL3 and LOXL4), 120 μM Amplex Red (Sigma Aldrich) and 1.5 U/mL horseradish peroxidase (Sigma Aldrich) prepared in 1.2 M urea, 50 mM sodium borate buffer (pH 8.2) were then added to the corresponding wells. The above volumes were doubled in the case of 96 wells plate. The fluorescence (RFU) was read every 2.5 min for 30 min at […] 37° C., excitation 565 nm and emission 590 (Optima; BMG labtech). The slope of the kinetics for each well was calculated using MARS data analysis software (BMG labtech) and this value was used to deduce the IC50 value (Dotmatics). The ability of the inventive compounds to inhibit the amine oxidase activity of LOX and other family members is shown in Table 4.

In the next test the target is T2, Human recombinant LOXL2 (Homo sapiens, UniProt Q9Y4K0).
T2 sequence (Q9Y4K0 26-774): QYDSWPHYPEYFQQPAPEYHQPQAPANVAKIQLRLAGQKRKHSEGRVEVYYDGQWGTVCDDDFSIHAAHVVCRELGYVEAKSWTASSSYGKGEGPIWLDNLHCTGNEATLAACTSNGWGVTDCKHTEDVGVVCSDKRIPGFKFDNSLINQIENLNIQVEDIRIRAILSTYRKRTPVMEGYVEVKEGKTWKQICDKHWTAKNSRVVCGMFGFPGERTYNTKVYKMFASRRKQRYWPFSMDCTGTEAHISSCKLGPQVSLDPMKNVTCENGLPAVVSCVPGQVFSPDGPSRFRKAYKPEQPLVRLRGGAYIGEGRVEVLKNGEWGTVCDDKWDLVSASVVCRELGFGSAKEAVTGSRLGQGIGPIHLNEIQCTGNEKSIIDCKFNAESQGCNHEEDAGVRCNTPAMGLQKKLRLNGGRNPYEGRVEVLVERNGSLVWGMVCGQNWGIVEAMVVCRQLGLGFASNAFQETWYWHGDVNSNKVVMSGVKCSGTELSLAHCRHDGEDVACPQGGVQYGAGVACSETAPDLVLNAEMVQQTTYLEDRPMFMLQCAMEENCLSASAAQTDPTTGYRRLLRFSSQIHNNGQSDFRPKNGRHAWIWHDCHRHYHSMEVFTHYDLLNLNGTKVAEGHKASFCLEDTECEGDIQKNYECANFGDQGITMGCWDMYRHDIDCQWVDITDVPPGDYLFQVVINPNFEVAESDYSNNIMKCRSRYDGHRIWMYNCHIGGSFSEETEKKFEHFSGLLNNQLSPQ
Put plainly: LOXL2 inhibition, Amplex Red oxidation assay. It counts as biochemical. The note with it: incubation with enzyme 30 min at 37° C; read-out: Human recombinant LOXL2 Activity IC50. The procedure:
as §1

Each structure is given as a SMILES string. Structures can show the parent of a compound that is named as a salt.

As to `NC/C=C(/F)C(F)(F)S(=O)(=O)c1ccccc1` [Compound 1(E)], the “inhibitory activity (in words)” value at Bovine LOX (LOX / LOXL preparations, compared with Compound 1) is “significantly reduced inhibitory activity”. The IC50 came to 23.1 µM at Bovine LOX and 2.1 µM at Human recombinant LOXL2.

With `CS(=O)(=O)c1cccc(S(=O)(=O)C(F)(F)/C(F)=C/CN)c1` [Compound 3, (Z)-3,4,4-trifluoro-4-((3-(methylsulfonyl)phenyl)sulfonyl)but-2-en-1-amine], the half-inhibitory concentration (IC50) on Bovine LOX came to 11.1 µM; at Human recombinant LOXL2, 0.7 µM.

On to `NC/C=C(\F)C(F)(F)S(=O)(=O)c1ccccc1N1CCS(=O)(=O)CC1` [Compound 7, (Z)-4-(2-((4-amino-1,1,2--trifluorobut-2-en-1-yl)sulfonyl)phenyl)thiomorpholine 1,1-dioxide, hydrochloride], for which the IC50 worked out at 22.8 µM at Bovine LOX and 2 µM on Human recombinant LOXL2.

On to `NC/C=C(\F)C(F)(F)S(=O)(=O)c1ccccc1O` [Compound 11, (Z)-2-((4-amino-1,1,2-trifluorobut-2-en-1-yl)sulfonyl)phenol], for which the IC50 on Bovine LOX is greater than 30 µM; on Human recombinant LOXL2, 1.7 µM.

As to `Cc1cccc(S(=O)(=O)C(F)(F)/C(F)=C/CN)c1` [Compound 13, (Z)-3,4,4-trifluoro-4-(m-tolylsulfonyl)but-2-en-1-amine], the 50% inhibitory concentration (IC50) is 3.9 µM at Bovine LOX and 0.5 µM on Human recombinant LOXL2.

Take `Cc1occc1S(=O)(=O)C(F)(F)/C(F)=C/CN` [Compound 15, (Z)-3,4,4-trifluoro-4-((2-methylfuran-3-yl)sulfonyl)but-2-en-1-amine]: the values for the IC50 at Bovine LOX and at Human recombinant LOXL2 were 5.9 µM and 0.7 µM, respectively.

`[2H]c1c([2H])c([2H])c(S(=O)(=O)C(F)(F)/C(F)=C/CN)c([2H])c1[2H]` [Compound 18, (Z)-3,4,4-trifluoro-4-((phenyl-d5)sulfonyl)but-2-en-1-amine]: the IC50 at Bovine LOX turned out to be 3.6 µM; at Human recombinant LOXL2 it was 0.7 µM.

On to `CS(=O)(=O)c1cccc(Oc2cccc(S(=O)(=O)C(F)(F)/C(F)=C/CN)c2)c1` [Compound 20, (Z)-3,4,4-trifluoro-4-((3-(3-(methylsulfonyl)phenoxy)phenyl)sulfonyl)but-2-en-1-amine], for which the IC50 at Bovine LOX came out at 4.4 µM.
